Experimental data from patent US9650395B2, “Antibacterial compounds and methods for use” (PTC Therapeutics, Inc., priority 2011, dated 2017).
≈ marks a conversion by molar mass, not a printed value.

How the values were obtained:
[1] = test system: resistant A. baumannii MXX2240 (MDR clinical isolate); assay: Antibacterial activity, MIC, resistant A. baumannii MXX2240; assay type: cell-based, Acinetobacter baumannii; conditions: Acinetobacter baumannii, resistant A. baumannii MMX2240, MDR clinical isolate; read-out: MIC MMX2240
[2] = test system: resistant K. pneumoniae MXX1232 (MDR clinical isolate); assay: Antibacterial activity, MIC, resistant K. pneumoniae MXX1232; assay type: cell-based, Klebsiella pneumoniae; conditions: Klebsiella pneumoniae; resistant K. pneumoniae MMX1232, MDR clinical isolate; read-out: MIC MMX1232
[3] = test system: Pseudomonas aeruginosa (P. aeruginosa) 27853; assay: Antibacterial activity, MIC, P. aeruginosa 27853; assay type: cell-based; conditions: Pseudomonas aeruginosa, P. aeruginosa 27853; read-out: MIC 27853
Description: (§1) The antibacterial activity from a microbroth dilution method may be presented as the minimum inhibitory concentration (MIC in […]). The MIC value is the lowest concentration of a drug which prevents macroscopically visible bacterial growth under test conditions.
Antibacterial activity of test compounds against the Gram-negative bacterium Pseudomonas aeruginosa (P. aeruginosa) 27853 is shown in Table 5.

[4] = test system: Acinetobacter baumannii (A. baumannii) BAA747; assay: Antibacterial activity, MIC, A. baumannii BAA747; assay type: cell-based; conditions: Acinetobacter baumannii; A. baumannii BAA747; read-out: MIC BAA747
[5] = test system: quinolone resistant E. coli LZ3111; assay: Antibacterial activity, MIC, quinolone resistant E. coli LZ3111; assay type: cell-based, Escherichia coli; conditions: Escherichia coli, read-out: MIC, LZ3111
Description: as §1
Mutations in these regions are known to confer a high level resistance to the quinolone class of antibiotics.

[6] = test system: super sensitive Gram-negative Escherichia coli (E. coli) BAS849; assay: Antibacterial activity, microbroth dilution MIC, E. coli BAS849; assay type: cell-based; conditions: Escherichia coli; E. coli BAS849, microbroth dilution; read-out: MIC, BAS849
[7] = test system: Klebsiella pneumoniae (K. pneumoniae) 35657; assay: Antibacterial activity, MIC, K. pneumoniae 35657; assay type: cell-based; conditions: Klebsiella pneumoniae
[8] = test system: control Gram-negative E. coli 25922 strain; assay: Antibacterial activity, microbroth dilution MIC, E. coli 25922; assay type: cell-based, Escherichia coli; conditions: Escherichia coli; E. coli 25922, microbroth dilution; read-out: MIC, 25922
[9] = test system: Gram-positive Staphylococcus aureus (S. aureus) 29213; assay: Antibacterial activity, microbroth dilution MIC, S. aureus 29213; assay type: cell-based; conditions: Staphylococcus aureus; S. aureus 29213, microbroth dilution; read-out: MIC, 29213
[10] = test system: E. coli ELZ4000 (MDR clinical isolate); assay: Antibacterial activity, MIC, MDR E. coli ELZ4000; assay type: cell-based, Escherichia coli; conditions: Escherichia coli; E. coli ELZ4000, MDR clinical isolate; read-out: MIC ELZ4000
[11] = test system: E. coli ELZ4251 (MDR clinical isolate); assay: Antibacterial activity, MIC, MDR E. coli ELZ4251; assay type: cell-based, Escherichia coli; conditions: Escherichia coli, E. coli ELZ4251, MDR clinical isolate; read-out: MIC ELZ4251
[12] = test system: Moraxella catarrhalis (M. catarrhalis) 25238; assay: Antibacterial activity, MIC, M. catarrhalis 25238; assay type: cell-based; conditions: Moraxella catarrhalis, M. catarrhalis 25238; read-out: MIC 25238
[13] = test system: Haemophilus influenzae (H. influenzae) 49247; assay: Antibacterial activity, MIC, H. influenzae 49247; assay type: cell-based; conditions: Haemophilus influenzae; H. influenzae 49247; read-out: MIC 49247
Summary of the method: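 Antibacterial activity against the Gram-negative organism Haemophilus influenzae strain 49247 was measured by microbroth dilution. The minimum inhibitory concentration (MIC) was taken as the lowest drug concentration that stopped bacterial growth from being visible to the naked eye under the test conditions.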

[14] = test system: Neisseria meningitidis (N. meningitidis) 13090; assay: Antibacterial activity, MIC, N. meningitidis 13090; assay type: cell-based; conditions: Neisseria meningitidis; N. meningitidis 13090; read-out: MIC 13090

Structure (SMILES)	MIC [1] [µg/mL]	MIC [2] [µg/mL]	MIC [3] [µg/mL]	MIC [4] [µg/mL]	MIC [5] [µg/mL]	MIC [6] [µg/mL]	MIC [7] [µg/mL]	MIC [8] [µg/mL]	MIC [9] [µg/mL]	MIC [10] [µg/mL]	MIC [11] [µg/mL]	MIC [12] [µg/mL]	MIC [13] [µg/mL]	MIC [14] [µg/mL]
CCc1c(-c2cnc(N(C)C)nc2)[nH]c(=O)c(C(=O)O)c1O [Cpd 20, 6-[2-(dimethylamino)pyrimidin-5-yl]-5-ethyl-4-hydroxy-2-oxo-1,2-dihydropyridine-3-carboxylic acid]	3.5 to 12.5 (≈ 11.5 to 41.1 µM)	12.5 to 150 (≈ 41.1 to 493 µM)	12.5 to 150 (≈ 41.1 to 493 µM)	12.5 to 150 (≈ 41.1 to 493 µM)	3.5 to 12.5 (≈ 11.5 to 41.1 µM)	12.5 to 150 (≈ 41.1 to 493 µM)	12.5 to 150 (≈ 41.1 to 493 µM)	12.5 to 150 (≈ 41.1 to 493 µM)	12.5 to 150 (≈ 41.1 to 493 µM)	–	–	–	–	–
CCc1c(-c2ccc(OC)cc2)[nH]c(=O)c(C(=O)O)c1O [Cpd 25, 5-ethyl-4-hydroxy-6-(4-methoxyphenyl)-2-oxo-1,2-dihydropyridine-3-carboxylic acid]	1 to 3.5 (≈ 3.46 to 12.1 µM)	12.5 to 150 (≈ 43.2 to 519 µM)	–	3.5 to 12.5 (≈ 12.1 to 43.2 µM)	12.5 to 150 (≈ 43.2 to 519 µM)	< 1	–	3.5 to 12.5 (≈ 12.1 to 43.2 µM)	12.5 to 150 (≈ 43.2 to 519 µM)	12.5 to 150 (≈ 43.2 to 519 µM)	12.5 to 150 (≈ 43.2 to 519 µM)	–	–	–
CCc1cc(C(=O)O)c(=O)[nH]c1-c1ccc(N(C)C)c(F)c1 [Cpd 93, 6-[4-(dimethylamino)-3-fluorophenyl]-5-ethyl-2-oxo-1,2-dihydropyridine-3-carboxylic acid]	–	–	12.5 to 150 (≈ 41.1 to 493 µM)	12.5 to 150 (≈ 41.1 to 493 µM)	12.5 to 150 (≈ 41.1 to 493 µM)	< 1	12.5 to 150 (≈ 41.1 to 493 µM)	12.5 to 150 (≈ 41.1 to 493 µM)	12.5 to 150 (≈ 41.1 to 493 µM)	12.5 to 150 (≈ 41.1 to 493 µM)	12.5 to 150 (≈ 41.1 to 493 µM)	< 1	< 1	< 1
CCc1c(-c2ccc(N(C)C)c(F)c2)[nH]c(=O)c(C(=O)O)c1O [Cpd 94, 6-[4-(dimethylamino)-3-fluorophenyl]-5-ethyl-4-hydroxy-2-oxo-1,2-dihydropyridine-3-carboxylic acid]	–	–	12.5 to 150 (≈ 39 to 468 µM)	12.5 to 150 (≈ 39 to 468 µM)	12.5 to 150 (≈ 39 to 468 µM)	< 1	12.5 to 150 (≈ 39 to 468 µM)	12.5 to 150 (≈ 39 to 468 µM)	12.5 to 150 (≈ 39 to 468 µM)	12.5 to 150 (≈ 39 to 468 µM)	12.5 to 150 (≈ 39 to 468 µM)	< 1	< 1	< 1
CCc1c(-c2ccc(N3CC[C@@H](O)C3)cc2)[nH]c(=O)c(C(=O)O)c1O [Cpd 124, 5-ethyl-4-hydroxy-6-{4-[(3R)-3-hydroxypyrrolidin-1-yl]phenyl}-2-oxo-1,2-dihydropyridine-3-carboxylic acid]	12.5 to 150 (≈ 36.3 to 436 µM)	12.5 to 150 (≈ 36.3 to 436 µM)	–	< 1	12.5 to 150 (≈ 36.3 to 436 µM)	< 1	–	< 1	1 to 3.5 (≈ 2.9 to 10.2 µM)	12.5 to 150 (≈ 36.3 to 436 µM)	12.5 to 150 (≈ 36.3 to 436 µM)	< 1	< 1	< 1
CCc1c(-c2ccc(N3CCC(O)C3)cc2)[nH]c(=O)c(C(=O)O)c1O (stereo not shown) [Cpd 126, 5-ethyl-4-hydroxy-6-[4-(3-hydroxypyrrolidin-1-yl)phenyl]-2-oxo-1,2-dihydropyridine-3-carboxylic acid]	12.5 to 150 (≈ 36.3 to 436 µM)	12.5 to 150 (≈ 36.3 to 436 µM)	3.5 to 12.5 (≈ 10.2 to 36.3 µM)	< 1	12.5 to 150 (≈ 36.3 to 436 µM)	< 1	–	< 1	1 to 3.5 (≈ 2.9 to 10.2 µM)	12.5 to 150 (≈ 36.3 to 436 µM)	12.5 to 150 (≈ 36.3 to 436 µM)	< 1	< 1	< 1
